Consider seven compounds from ChEMBL document CHEMBL3046849, “Composition of essential oil of Chinese Chenopodium ambrosioides and insecticidal activity against maize weevil, Sitophilus zeamais” (2011).

By LD50 is commonly meant the dose expected to kill half of the subjects tested. By LC50 is commonly meant the concentration lethal to half of the exposed cells or organisms.

In brackets after ≈: the same amount, converted by molar mass. A value given as a limit tells only on which side of the number the result lay.

Type in all cases: functional
Test [1] deals with Sitophilus zeamais. Put plainly: Contact toxicity against adult Sitophilus zeamais assessed as mortality applied to dorsal thorax of insect measured daily for 1 week. Conditions: 168 h.
The test system of test [2] is Sitophilus zeamais. Put plainly: Insecticidal activity against adult Sitophilus zeamais assessed as mortality measured daily for 1 week by fumigation assay. Particulars: 168 h.
The subject of test [3] is Sitophilus zeamais. Put plainly: Insecticidal activity against adult Sitophilus zeamais assessed as mortality after 24 hr by fumigation assay.

For `CC1=CC2C(CC1)C2(C)C` (configuration not stated) [2-CARENE], in the test on Sitophilus zeamais [1], the median lethal dose (LD50) is 3.55 mg/kg. Also, the median lethal concentration (LC50) in the test on Sitophilus zeamais [2] was 14 µg/mL (≈ 103 µM). For `Cc1ccc(C(C)C)cc1` [P-CYMENE], in that order: above 23.2 mg/kg and 23.3 µg/mL (≈ 173 µM). For `CC(C)[C@@]12C=C[C@@](C)(CC1)OO2` [(Z)-ASCARIDOLE], in that order: 0.86 mg/kg and 0.84 µg/mL (≈ 4.99 µM). For the compound `P` [PHOSPHINE], in the test on Sitophilus zeamais [3], the LC50 is 0.006 µg/mL (≈ 0.176 µM).

With `CBr` [BROMOMETHANE], in the test with Sitophilus zeamais [3], the 50% lethal concentration (LC50) amounted to 0.67 µg/mL (≈ 7.06 µM).

On to `CC1=CC=C(C(C)C)CC1` [ALPHA-TERPINENE], for which the LD50 in the test with Sitophilus zeamais [1] is 3.47 mg/kg. In addition, in the test on Sitophilus zeamais [2], the median lethal concentration (LC50) turned out to be 5.46 µg/mL (≈ 40.1 µM). For `CC(C)[C@]12CC[C@@]3(C)O[C@H]3[C@H]1O2` [ISOASCARIDOLE], in that order: 2.16 mg/kg and 2.45 µg/mL (≈ 14.6 µM).
